# In publication PMC12281142, “A potent phenylalkylamine disrupts mycobacterial membrane bioenergetics and augments bactericidal activity of bedaquiline” (iScience, 2025):
# Tests used:
# M. bovis BCG = type: cell-based, Mycobacterium bovis BCG
# Mtb H37Rv = settings: drug sensitive and resistant strains of Mtb H37Rv; cited from earlier work
SMILES,spontaneous mutation frequency (M. bovis BCG),decrease in BDQ MIC caused by VP (Mtb H37Rv) [fold]
CCCCCCCCC(C#N)(CCCN(C)CCc1ccc(OC)c(OC)c1)c1ccc(OC)c(OC)c1 (centres unmarked) [PhA2],< 10^−9 /CFU,–
"COc1ccc(CCN(C)CCCC(C#N)(c2ccc(OC)c(OC)c2)C(C)C)cc1OC (centres unmarked) [VP, verapamil, reference compound]",–,20
